# Measurements published in patent publication US10556865B2, “Synergistic herbicidal composition containing certain pyridine or pyrimidine carboxylic acids and certain cereal and rice herbicides” (Dow AgroSciences, LLC, priority 2007, dated 2020).
# Where two headings read alike, the source gives them in different places.
# How the values were obtained:
# Type in all cases: in vivo
# [1] = system: blackgrass (Alopecurus myosuroides L; ALOMY); assay: Postemergence herbicidal activity of mixtures in cereal crops (greenhouse, visual injury 0-100 percent after 20-22 days)
# Method in brief: (§1)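 Plants at second-third true leaf stage sprayed postemergence at 187 L/ha with compound and second cereal herbicide alone and combined; solvent blank controls. Visual injury scored 0-100% versus controls after 20-22 days; expected mixture effects by Colby's equation.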
# [2] = system: windgrass (Apera spica-venti L; APESV); assay: Postemergence herbicidal activity of mixtures in cereal crops (greenhouse, visual injury); details: for pest or weed control at 8.75 g/ha / pest or weed control at 17.5 g/ha / pest or weed control at 35 g/ha / pest or weed control at 70 g/ha / pest or weed control at 140 g/ha: Apera spica-venti, post-emergence, read-out: APESV Ob
# Method in brief: as §1
# [3] = system: littleseed Canarygrass (Phalaris minor L; PHAMI); assay: as above; details: for PHAMI: Table 13
# Method in brief: as §1
# [4] = system: wild oats (Avena fatua L; AVEFA); assay: as above
# Method in brief: as §1
# [5] = system: annual ryegrass (Lolium multiflorum L; LOLMG); assay: as above
# Method in brief: as §1
smiles,measurement,setting,value
"COC(=O)c1nc(-c2ccc(Cl)c(OC)c2F)nc(N)c1Cl [Compound B Methyl, 6-amino-5-chloro-2-(4-chloro-2-fluoro-3-methoxyphenyl)pyrimidine-4-carboxylic acid methyl ester]",ALOMY Ob,[1]; 8.75 g/ha,0%
same,ALOMY Ob,"[1]; 8.75 g/ha, Table 20",0%
same,ALOMY Ob,"[1]; 8.75 g/ha, Table 22",0%
same,ALOMY Ob,[1]; 17.5 g/ha,10%
same,ALOMY Ob,"[1]; 17.5 g/ha, Table 20",10%
same,ALOMY Ob,"[1]; 17.5 g/ha, Table 22",10%
same,ALOMY Ob,[1]; 35 g/ha,20%
same,ALOMY Ob,"[1]; 35 g/ha, Table 20",20%
same,ALOMY Ob,"[1]; 35 g/ha, Table 22",20%
same,ALOMY Ob,[1]; 70 g/ha,40%
same,ALOMY Ob,"[1]; 70 g/ha, Table 20",40%
same,ALOMY Ob,"[1]; 70 g/ha, Table 22",40%
same,APESV Ob,[2]; 8.75 g/ha,0%
same,APESV Ob,[2]; 17.5 g/ha,0%
same,APESV Ob,[2]; 35 g/ha,0%
same,APESV Ob,[2]; 70 g/ha,0%
same,pest or weed control at 8.75 g/ha,"[2]; 8.75 g/ha, Table 20",0%
same,pest or weed control at 8.75 g/ha,"[2]; 8.75 g/ha, Table 22",0%
same,pest or weed control at 17.5 g/ha,"[2]; 17.5 g/ha, Table 20",0%
same,pest or weed control at 17.5 g/ha,"[2]; 17.5 g/ha, Table 22",0%
same,pest or weed control at 35 g/ha,"[2]; 35 g/ha, Table 20",0%
same,pest or weed control at 35 g/ha,"[2]; 35 g/ha, Table 22",0%
same,pest or weed control at 70 g/ha,"[2]; 70 g/ha, Table 20",0%
same,pest or weed control at 70 g/ha,"[2]; 70 g/ha, Table 22",0%
same,PHAMI Ob,[3]; 8.75 g/ha,0%
same,PHAMI Ob,"[3]; 8.75 g/ha, Table 20",0%
same,PHAMI Ob,"[3]; 8.75 g/ha, Table 22",0%
same,PHAMI Ob,[3]; 17.5 g/ha,0%
same,PHAMI Ob,"[3]; 17.5 g/ha, Table 20",0%
same,PHAMI Ob,"[3]; 17.5 g/ha, Table 22",0%
same,PHAMI Ob,[3]; 35 g/ha,0%
same,PHAMI Ob,"[3]; 35 g/ha, Table 20",0%
same,PHAMI Ob,"[3]; 35 g/ha, Table 22",0%
same,PHAMI Ob,[3]; 70 g/ha,0%
same,PHAMI Ob,"[3]; 70 g/ha, Table 20",0%
same,PHAMI Ob,"[3]; 70 g/ha, Table 22",0%
same,AVEFA Ob,[4]; 8.75 g/ha,0%
same,AVEFA Ob,"[4]; 8.75 g/ha, Table 20",0%
same,AVEFA Ob,[4]; 17.5 g/ha,0%
same,AVEFA Ob,"[4]; 17.5 g/ha, Table 20",0%
same,AVEFA Ob,[4]; 35 g/ha,0%
same,AVEFA Ob,"[4]; 35 g/ha, Table 20",0%
same,AVEFA Ob,[4]; 70 g/ha,0%
same,AVEFA Ob,"[4]; 70 g/ha, Table 20",0%
same,LOLMG Ob,[5]; 8.75 g/ha,0%
same,LOLMG Ob,"[5]; 8.75 g/ha, Table 22",0%
same,LOLMG Ob,[5]; 17.5 g/ha,0%
same,LOLMG Ob,"[5]; 17.5 g/ha, Table 22",0%
same,LOLMG Ob,[5]; 35 g/ha,0%
same,LOLMG Ob,"[5]; 35 g/ha, Table 22",0%
same,LOLMG Ob,[5]; 70 g/ha,0%
same,LOLMG Ob,"[5]; 70 g/ha, Table 22",0%
"COc1c(Cl)ccc(-c2cc(N)c(Cl)c(C(=O)O)n2)c1F [Compound A TEA, 4-amino-3-chloro-6-(4-chloro-2-fluoro-3-methoxyphenyl)pyridine-2-carboxylic acid]",ALOMY Ob,"[1]; 35 g/ha, Table 14",0%
same,ALOMY Ob,"[1]; 35 g/ha, Table 16",0%
same,ALOMY Ob,"[1]; 35 g/ha, Table 18",0%
same,ALOMY Ob,"[1]; 35 g/ha, Table 19",0%
same,ALOMY Ob,"[1]; 70 g/ha, Table 14",0%
same,ALOMY Ob,"[1]; 70 g/ha, Table 16",0%
same,ALOMY Ob,"[1]; 70 g/ha, Table 18",0%
same,ALOMY Ob,"[1]; 70 g/ha, Table 19",0%
same,ALOMY Ob,"[1]; 140 g/ha, Table 14",3%
same,ALOMY Ob,"[1]; 140 g/ha, Table 16",0%
same,ALOMY Ob,"[1]; 140 g/ha, Table 18",3%
same,ALOMY Ob,"[1]; 140 g/ha, Table 19",0%
same,pest or weed control at 35 g/ha,"[2]; 35 g/ha, Table 14",8%
same,pest or weed control at 35 g/ha,"[2]; 35 g/ha, Table 15",3%
same,pest or weed control at 35 g/ha,"[2]; 35 g/ha, Table 16",3%
same,pest or weed control at 35 g/ha,"[2]; 35 g/ha, Table 17",3%
same,pest or weed control at 35 g/ha,"[2]; 35 g/ha, Table 18",8%
same,pest or weed control at 70 g/ha,"[2]; 70 g/ha, Table 14",13%
same,pest or weed control at 70 g/ha,"[2]; 70 g/ha, Table 15",0%
same,pest or weed control at 70 g/ha,"[2]; 70 g/ha, Table 16",0%
same,pest or weed control at 70 g/ha,"[2]; 70 g/ha, Table 17",0%
same,pest or weed control at 70 g/ha,"[2]; 70 g/ha, Table 18",13%
same,pest or weed control at 140 g/ha,[2]; Table 14,15%
same,pest or weed control at 140 g/ha,[2]; Table 15,4%
same,pest or weed control at 140 g/ha,[2]; Table 16,4%
same,pest or weed control at 140 g/ha,[2]; Table 17,4%
same,pest or weed control at 140 g/ha,[2]; Table 18,15%
same,PHAMI,[3]; 35 g/ha,0%
same,PHAMI Ob,"[3]; 35 g/ha, Table 16",0%
same,PHAMI Ob,"[3]; 35 g/ha, Table 18",0%
same,PHAMI,[3]; 70 g/ha,0%
same,PHAMI Ob,"[3]; 70 g/ha, Table 16",0%
same,PHAMI Ob,"[3]; 70 g/ha, Table 18",0%
same,PHAMI,[3]; 140 g/ha,0%
same,PHAMI Ob,"[3]; 140 g/ha, Table 16",0%
same,PHAMI Ob,"[3]; 140 g/ha, Table 18",0%
same,AVEFA Ob,"[4]; 35 g/ha, Table 14",0%
same,AVEFA Ob,"[4]; 35 g/ha, Table 17",0%
same,AVEFA Ob,"[4]; 35 g/ha, Table 18",0%
same,AVEFA Ob,"[4]; 70 g/ha, Table 14",0%
same,AVEFA Ob,"[4]; 70 g/ha, Table 17",3%
same,AVEFA Ob,"[4]; 70 g/ha, Table 18",0%
same,AVEFA Ob,"[4]; 140 g/ha, Table 14",0%
same,AVEFA Ob,"[4]; 140 g/ha, Table 17",8%
same,AVEFA Ob,"[4]; 140 g/ha, Table 18",0%
same,LOLMG Ob,"[5]; 35 g/ha, Table 13",0%
same,LOLMG Ob,"[5]; 70 g/ha, Table 13",0%
same,LOLMG Ob,"[5]; 140 g/ha, Table 13",0%
"COC(=O)c1nc(-c2ccc(Cl)c(OC)c2F)cc(N)c1Cl [Compound A Methyl, 4-amino-3-chloro-6-(4-chloro-2-fluoro-3-methoxyphenyl)pyridine-2-carboxylic acid methyl ester]",ALOMY Ob,"[1]; 17.5 g/ha, Table 1",0%
same,ALOMY Ob,"[1]; 17.5 g/ha, Table 2",0%
same,ALOMY Ob,"[1]; 17.5 g/ha, Table 4",0%
same,ALOMY Ob,"[1]; 17.5 g/ha, Table 5",0%
same,ALOMY Ob,"[1]; 17.5 g/ha, Table 6",0%
same,ALOMY Ob,"[1]; 35 g/ha, Table 1",20%
same,ALOMY Ob,"[1]; 35 g/ha, Table 2",20%
same,ALOMY Ob,"[1]; 35 g/ha, Table 3",30%
same,ALOMY Ob,"[1]; 35 g/ha, Table 4",30%
same,ALOMY Ob,"[1]; 35 g/ha, Table 5",30%
same,ALOMY Ob,"[1]; 35 g/ha, Table 6",30%
same,ALOMY Ob,"[1]; 35 g/ha, Table 7",3%
same,ALOMY Ob,"[1]; 70 g/ha, Table 1",50%
same,ALOMY Ob,"[1]; 70 g/ha, Table 2",50%
same,ALOMY Ob,"[1]; 70 g/ha, Table 3",30%
same,ALOMY Ob,"[1]; 70 g/ha, Table 4",30%
same,ALOMY Ob,"[1]; 70 g/ha, Table 5",30%
same,ALOMY Ob,"[1]; 70 g/ha, Table 6",30%
same,ALOMY Ob,"[1]; 70 g/ha, Table 7",20%
same,ALOMY Ob,"[1]; 140 g/ha, Table 7",47%
same,pest or weed control at 17.5 g/ha,"[2]; 17.5 g/ha, Table 1",20%
same,pest or weed control at 17.5 g/ha,"[2]; 17.5 g/ha, Table 4",0%
same,pest or weed control at 17.5 g/ha,"[2]; 17.5 g/ha, Table 5",0%
same,pest or weed control at 35 g/ha,"[2]; 35 g/ha, Table 1",20%
same,pest or weed control at 35 g/ha,"[2]; 35 g/ha, Table 3",10%
same,pest or weed control at 35 g/ha,"[2]; 35 g/ha, Table 4",10%
same,pest or weed control at 35 g/ha,"[2]; 35 g/ha, Table 5",10%
same,pest or weed control at 70 g/ha,"[2]; 70 g/ha, Table 1",30%
same,pest or weed control at 70 g/ha,"[2]; 70 g/ha, Table 3",10%
same,pest or weed control at 70 g/ha,"[2]; 70 g/ha, Table 4",10%
same,pest or weed control at 70 g/ha,"[2]; 70 g/ha, Table 5",10%
same,PHAMI Ob,"[3]; 17.5 g/ha, Table 4",20%
same,PHAMI Ob,"[3]; 17.5 g/ha, Table 5",20%
same,PHAMI Ob,"[3]; 17.5 g/ha, Table 6",20%
same,PHAMI Ob,"[3]; 35 g/ha, Table 3",30%
same,PHAMI Ob,"[3]; 35 g/ha, Table 4",30%
same,PHAMI Ob,"[3]; 35 g/ha, Table 5",30%
same,PHAMI Ob,"[3]; 35 g/ha, Table 6",30%
same,PHAMI Ob,"[3]; 35 g/ha, Table 11",3%
same,PHAMI Ob,"[3]; 70 g/ha, Table 3",35%
same,PHAMI Ob,"[3]; 70 g/ha, Table 4",35%
same,PHAMI Ob,"[3]; 70 g/ha, Table 5",35%
same,PHAMI Ob,"[3]; 70 g/ha, Table 6",35%
same,PHAMI Ob,"[3]; 70 g/ha, Table 11",6%
same,PHAMI Ob,"[3]; 140 g/ha, Table 11",17%
same,AVEFA Ob,"[4]; 17.5 g/ha, Table 1",30%
same,AVEFA Ob,"[4]; 17.5 g/ha, Table 4",0%
same,AVEFA Ob,"[4]; 17.5 g/ha, Table 5",0%
same,AVEFA Ob,"[4]; 35 g/ha, Table 1",30%
same,AVEFA Ob,"[4]; 35 g/ha, Table 3",40%
same,AVEFA Ob,"[4]; 35 g/ha, Table 4",40%
same,AVEFA Ob,"[4]; 35 g/ha, Table 5",40%
same,AVEFA Ob,"[4]; 70 g/ha, Table 1",35%
same,AVEFA Ob,"[4]; 70 g/ha, Table 3",45%
same,AVEFA Ob,"[4]; 70 g/ha, Table 4",45%
same,AVEFA Ob,"[4]; 70 g/ha, Table 5",45%
same,LOLMG Ob,"[5]; 17.5 g/ha, Table 1",20%
same,LOLMG Ob,"[5]; 17.5 g/ha, Table 2",20%
same,LOLMG Ob,"[5]; 35 g/ha, Table 1",40%
same,LOLMG Ob,"[5]; 35 g/ha, Table 2",40%
same,LOLMG Ob,"[5]; 70 g/ha, Table 1",0%
same,LOLMG Ob,"[5]; 70 g/ha, Table 2",60%
